Test results taken from article PMC8126888 (RSC Medicinal Chemistry, 2020).
Like-named read-outs stand apart in the source and are kept apart here.

Key:
[1] = physchem; conditions: HPLC, Ascentis Express RP Amide column
[2] = system: Leishmania infantum MHOM/MA(BE)/67/ITMAP263 intracellular amastigotes; assay: microbe, parasite or virus in culture; conditions: Macrophage, in Mus musculus
[3] = in vitro; conditions: mouse, microsomes; for microsomal CLint at 0.5 μM: pH 7.4, MLM CLint, mouse liver microsomes
[4] = in vitro; conditions: human
[5] = in vitro; conditions: human, microsomes
[6] = in vitro; conditions: Swiss, mouse
[7] = system: Trypanosoma cruzi, Tulahuen CL2, beta-galactosidase strain; assay: microbe, parasite or virus in culture; conditions: MRC5, read-out: T. cruzi Tulahuen C4 (LacZ) IC50
[8] = system: primary peritoneal mouse macrophages (PMM); conditions: PMM IC50 / L. infantum IC50
[9] = system: Leishmania infantum MHOM/MA(BE)/67/ITMAP263 intracellular amastigotes
[10] = system: Leishmania infantum (MHOM/MA/67/ITMAP-263) intracellular amastigotes in THP-1; assay: microbe, parasite or virus in culture; conditions: THP-1, 120 h, read-out: Intracellular activity pIC50 L. inf. in THP-1 (converted)
[11] = in vitro; conditions: human, PMA-differentiated THP-1 cells
[12] = system: primary peritoneal mouse macrophages (PMM); assay: cells; conditions: Macrophage, read-out: PMM pIC50 (converted)
[13] = read-out: L. Inf. pIC50, from L. infantum intracellular amastigote IC50 (converted)
[14] = read-out: L. infantum MHOM/MA(BE)/67/ITMAP263 intracellular amastigotes IC50
[15] = pH 7.4, HLM CLint, human liver microsomes
[16] = pH 7.4, elog D, HPLC measured log D, pH 7.4
[17] = read-out: L. inf. pIC50, intracellular amastigotes in PMM (converted), geometric mean of a minimum of two experiments ± standard error
[18] = pH 7.4, Microsome Clint Human, intrinsic in vitro clearance, liver microsomes
[19] = reference drug in the intracellular Leishmania amastigote assay

Row | SMILES | chromatographic logD ([1]; pH 7.4, eLogD) | IC50 [2, 13] [µM] | IC50 [2, 14] [µM] | microsomal CLint at 0.5 μM [3] [µL/min/mg] | CC50 at 3 days [4] [µM] | microsomal CLint at 0.5 μM [5, 15] [µL/min/mg] | IC50 [6] [µM] | IC50 [7] [µM] | SI (vs PMM) [8] | IC50 [2, 17] [µM] | IC50 [10] [µM] | further results
1 | COc1ccc(OC)c(S(=O)(=O)N(Cc2ccccc2)C2CCNCC2)c1 [DNDI0003366094] | 3.1 | 27.5 | 27.8 | 23 | 42.2 | 100 | 45.2 | 28.9 | 2 |  |  | 
2 | O=S(=O)(c1ccccc1OC(F)(F)F)N(Cc1ccccc1)Cc1ccccc1 [DNDI0003366074] |  | 1.07 | 1.08 | 689 | > 64 | 93 | 32 | 6.3 | 30 |  |  | 
3 | CCN(Cc1ccccc1)S(=O)(=O)c1cc(F)ccc1OC [DNDI0003366070] | 3.9 | 11 | 11 |  | 49.6 | 383 | > 64 | 28.4 | 6 |  |  | 
4 | COCCN(Cc1ccccc1)S(=O)(=O)c1cc(OC)ccc1OC [DNDI0003365566] |  | 2.09 | 2.07 |  | 39.4 | 253 | > 64 | 32.8 | 31 |  |  | 
5 | COc1ccc(OC)c(S(=O)(=O)N(C)Cc2ccc(F)cc2)c1 [DNDI0003366066] |  | 11.7 | 11.7 |  | > 64 | 414 | > 64 | 26.7 | 5 |  |  | 
6 | COCCOCN1CNc2cc(OC)c(S(=O)(=O)N(Cc3ccccc3)Cc3ccccc3)cc2S1(=O)=O [Compound 29] |  |  |  |  |  |  |  |  |  | 0.661 | 14.8 | chromatographic logD [1, 16]: 4; potency against L. inf. in words ([9]; intracellular amastigotes in PMM): sub-micromolar potency; microsomal CLint at 0.5 h, 0.5 µM ([3]; pH 7.4, Microsome Clint Mouse, intrinsic in vitro clearance, liver microsomes): 1370 µL/min/mg; microsomal CLint at 0.5 h, 0.5 µM [5, 18]: 518 µL/min/mg; IC50 at 120 h [11]: 39.8 µM; IC50 [12]: > 64.6 µM
7 | COCCN(Cc1ccccc1)S(=O)(=O)c1ccc(NC(C)=O)cc1 [DNDI0003366100] | 3.2 | > 64 | > 64 | 29 | > 64 | 424 | > 64 | > 64 | 1 |  |  | 
8 | CCN(Cc1ccccn1)S(=O)(=O)c1cc(OC)ccc1OC [DNDI0003366095] | 2.7 | 43.7 | 44.1 | 2190 | > 64 | 118 | > 64 | > 64 | 1 |  |  | 
9 | C[C@@H]1[C@H](O)[C@@H](C)/C=C/C=C/C=C/C=C/C=C/C=C/C=C/[C@H](O[C@@H]2O[C@H](C)[C@@H](O)[C@H](N)[C@@H]2O)C[C@@H]2O[C@](O)(C[C@@H](O)C[C@@H](O)[C@H](O)CC[C@@H](O)C[C@@H](O)CC(=O)O[C@H]1C)C[C@H](O)[C@H]2C(=O)O [Amphotericin B, reference compound] |  |  |  |  |  |  |  |  |  |  | 1.95 | 
10 | COc1ccc(Cl)cc1S(=O)(=O)NCCN(C)C [DNDI0003366089] | 2.1 | > 64 | > 64 |  | > 64 | 33 | > 64 | > 64 | 1 |  |  | 
11 | COc1ccc(S(C)(=O)=O)cc1S(=O)(=O)N(Cc1ccc(F)cc1)Cc1ccc(F)cc1 [Compound 26] |  |  |  |  |  |  |  |  |  | 1.29 | 5.89 | chromatographic logD [1, 16]: 3.9; microsomal CLint at 0.5 μM [5, 18]: 296 µL/min/mg; IC50 at 120 h [11]: > 64.6 µM; IC50 [12]: > 64.6 µM
12 | CCCCCCCCCCCCCCCCOP(=O)([O-])OCC[N+](C)(C)C [Miltefosine, reference compound] |  |  |  |  |  |  |  |  |  | 8.71 | 1.95 | IC50 [9, 19]: ~5 µM; IC50 [2, 19]: 5 to 10 µM
13 | COc1ccc(C#N)cc1S(=O)(=O)N(Cc1ccccc1)Cc1cnc(C(F)(F)F)nc1 [Compound 49] |  |  |  |  |  |  |  |  |  | 3.89 | 61.7 | chromatographic logD [1, 16]: 3.8; microsomal CLint at 0.5 μM ([5]; pH 7.4, Microsome Clint,u Human, Table 2, intrinsic in vitro clearance, liver microsomes): 100 µL/min/mg; IC50 at 120 h [11]: > 64.6 µM; IC50 [12]: > 64.6 µM
